PMC9656319, “Pharmacokinetics and Tissue Distribution of Coumarins from Tagetes lucida in an LPS-Induced Neuroinflammation Model” (Plants, 2022)
Blank lines part the entries; values can stand above or below the molecule they belong to.

Assays:
[1] = Pharmacokinetic study in plasma after oral hexanic extract of Tagetes lucida, healthy and LPS-damaged mice; assay type: in vivo, ICR mice; details: for amount of drug available in the plasma, LPS mice compared to healthy subjects / Cmax / AUC(0-inf) / MRT / Tmax / half-life / AUC(0-t) / Cl/F: 10 mg/kg oral hexanic extract; for amount of drug available in the plasma, LPS mice compared to healthy subjects: concentration-time profiles (Figure 3); for Cmax / AUC(0-inf) / MRT / Tmax / half-life / AUC(0-t): ICR, mouse, po, 10 mg/kg; for Cmax: non-compartmental; for Cmax / AUC(0-inf) / MRT / Tmax / half-life / AUC(0-t) / Cl/F: mean ± SEM (n = 5); for AUC(0-t): to 6 h
Experimental: The optimized HPLC-validated method for the quantification of coumarins present in the hexane extract of T. lucida was used to evaluate the concentration profiles over time in the plasma, brain, kidney, and spleen biological matrices after an oral administration of 10 mg/kg of the extract.
Blood samples were obtained from the retro-orbital sinus of mice and collected in heparinized tubes. Plasma was separated by centrifugation at 3500 rpm for 5 min and stored in new Eppendorf tubes at −70 °C, until further processing.
One hundred microliters of plasma and organs samples, spiked with calibration and QC concentration or samples from the pharmacokinetic study, were mixed with 300 µL of acetonitrile containing the IS at 10 µg/mL for protein precipitation, and vortexed for 3 min. Then, 200 µL of dichloromethane were added, for liquid–liquid extraction of the bioactive compounds, and vortexed for 5 min. The mixture was centrifuged at 14,000 rpm for 10 min, and the extracted organic layers were placed in new tubes, until completely dry at room temperature. For quantitative analysis, samples were resuspended in 100 µL of methanol, transferred to sampling vials, and injected into the chromatographic system, described below.
A pharmacokinetic study was carried out in sixty mice, divided in six subgroups, according to sample collection times. An acute inflammation process by the intraperitoneal (i.p.) administration of LPS at 2 mg/kg was induced in half of the mice per group, while the other half received an i.p. injection of saline solution. Ten min after the damage was induced, the mice were administered with an oral dose of 10 mg/kg of the bioactive fraction dissolved in a 1% Tween-20 aqueous solution. Blood and tissue samples were obtained and processed at 0, 0.25, 0.75, 1.5, 2, 4, and 6 h post-dosing, as indicated in the “Samples collection” and “Plasma and tissue samples processing” sections.
Pharmacokinetic parameters of PE, SC, DF, HR, and PU in plasma were calculated by PKSolver software.

[2] = Stability of the analytes in spiked plasma, brain, kidney and spleen matrices (autosampler, long-term, freeze-thaw); assay type: physicochemical, mice; details: for Stability Autosampler RE (%): processed samples in autosampler vials 24 h room temperature; for Stability Freeze-Thaw RE (%): three cycles (−4 °C to 25 °C); for Stability Long-Term RE (%): −70 °C for 30 days
Experimental: The stability of the compounds obtained from each enriched matrices at the QC concentrations was evaluated under different conditions that covered the processing, handling, and storage phases that could be developed throughout the study.
Individual stock solutions of PE, SC, DF, HR, PU, and rutin (IS) were prepared separately in methanol (1 mg/mL) and stored at −4 °C until use. From the stocks, a working solution in methanol was prepared at a concentration of 200 µg/mL of each coumarin. Blank plasma or organs supernatant samples (80 µL) were spiked with 20 µL of serial dilutions of working solution to obtain calibration curves ranging between 0.156, 0.312, 0.625, 1.25, 2.5, 5, 10, 20, and 40 µg/mL of each coumarin. Quality control (QC) samples were prepared at three levels of 0.3 (low), 3 (medium), and 30 (high) µg/mL for each coumarin.
The stability of the analytes in plasma, brain, kidneys, and spleen was evaluated by the analyzed concentrations of QC subjected to three different conditions. Short-term stability was determined by analysis of samples processed in the autosampler vials at 24 h at room temperature. Long-term stability was tested on samples stored at −70 °C for 30 days. Freeze-thaw stability was determined after three cycles (−4 °C to 25 °C) on three consecutive days.

[3] = plasma, LPS-damaged ICR mice (LPS 2 mg/kg i.p.)

Stability Autosampler RE (%) ([2]; brain, nominal 0.3 µg/mL): -4.07%
Stability Freeze-Thaw RE (%) ([2]; brain, nominal 0.3 µg/mL): 0.03%
Stability Long-Term RE (%) ([2]; brain, nominal 0.3 µg/mL): -0.62%
Stability Autosampler RE (%) ([2]; brain, nominal 3.0 µg/mL): 3.73%
Stability Freeze-Thaw RE (%) ([2]; brain, nominal 3.0 µg/mL): -6.72%
Stability Long-Term RE (%) ([2]; brain, nominal 3.0 µg/mL): 0.46%
Stability Autosampler RE (%) ([2]; brain, nominal 30.0 µg/mL): 3.21%
Stability Freeze-Thaw RE (%) ([2]; brain, nominal 30.0 µg/mL): -0.35%
Stability Long-Term RE (%) ([2]; brain, nominal 30.0 µg/mL): -4.35%
Stability Autosampler RE (%) ([2]; kidney, nominal 0.3 µg/mL): 5.83%
Stability Freeze-Thaw RE (%) ([2]; kidney, nominal 0.3 µg/mL): -0.65%
Stability Long-Term RE (%) ([2]; kidney, nominal 0.3 µg/mL): 5.19%
Stability Autosampler RE (%) ([2]; kidney, nominal 3.0 µg/mL): 4.79%
Stability Freeze-Thaw RE (%) ([2]; kidney, nominal 3.0 µg/mL): 0.82%
Stability Long-Term RE (%) ([2]; kidney, nominal 3.0 µg/mL): 8.12%
Stability Autosampler RE (%) ([2]; kidney, nominal 30.0 µg/mL): 0.66%
Stability Freeze-Thaw RE (%) ([2]; kidney, nominal 30.0 µg/mL): 0.47%
Stability Long-Term RE (%) ([2]; kidney, nominal 30.0 µg/mL): 5.67%
Stability Autosampler RE (%) ([2]; plasma, nominal 0.3 µg/mL): 2.59%
Stability Freeze-Thaw RE (%) ([2]; plasma, nominal 0.3 µg/mL): -12.33%
Stability Long-Term RE (%) ([2]; plasma, nominal 0.3 µg/mL): -6.74%
Stability Autosampler RE (%) ([2]; plasma, nominal 3.0 µg/mL): -1.38%
Stability Freeze-Thaw RE (%) ([2]; plasma, nominal 3.0 µg/mL): 2.47%
Stability Long-Term RE (%) ([2]; plasma, nominal 3.0 µg/mL): -3.13%
Stability Autosampler RE (%) ([2]; plasma, nominal 30.0 µg/mL): 4.21%
Stability Freeze-Thaw RE (%) ([2]; plasma, nominal 30.0 µg/mL): 0.49%
Stability Long-Term RE (%) ([2]; plasma, nominal 30.0 µg/mL): -3.40%
Stability Autosampler RE (%) ([2]; spleen, nominal 0.3 µg/mL): 6.88%
Stability Freeze-Thaw RE (%) ([2]; spleen, nominal 0.3 µg/mL): -0.67%
Stability Long-Term RE (%) ([2]; spleen, nominal 0.3 µg/mL): 5.43%
Stability Autosampler RE (%) ([2]; spleen, nominal 3.0 µg/mL): -1.66%
Stability Freeze-Thaw RE (%) ([2]; spleen, nominal 3.0 µg/mL): 0.49%
Stability Long-Term RE (%) ([2]; spleen, nominal 3.0 µg/mL): 7.09%
Stability Autosampler RE (%) ([2]; spleen, nominal 30.0 µg/mL): 1.50%
Stability Freeze-Thaw RE (%) ([2]; spleen, nominal 30.0 µg/mL): -1.06%
Stability Long-Term RE (%) ([2]; spleen, nominal 30.0 µg/mL): 7.60%
SMILES: COc1cc2ccc(=O)oc2c(OC)c1OC [DF, dimethylfraxetin]
amount of drug available in the plasma, LPS mice compared to healthy subjects [1]: three-fold higher
Cmax [1, 3]: 1820 ± 270 ng/mL
AUC(0-inf) ([1]; plasma, LPS-damaged ICR mice): 3610 ± 400 ng·h/mL
MRT ([1]; plasma, LPS-damaged ICR mice): 2.72 ± 0.3 h
Tmax ([1]; plasma, LPS-damaged ICR mice): 0.6 ± 0.24 h
half-life ([1]; plasma, LPS-damaged ICR mice): 1.5 ± 0.37 h
AUC(0-t) ([1]; plasma, LPS-damaged ICR mice): 3250 ± 310 ng·h/mL
AUC(0-inf) ([1]; plasma, healthy ICR mice): 1710 ± 190 ng·h/mL
MRT ([1]; plasma, healthy ICR mice): 2.35 ± 0.33 h
Tmax ([1]; plasma, healthy ICR mice): 1.2 ± 0.31 h
half-life ([1]; plasma, healthy ICR mice): 0.98 ± 0.27 h
Cmax ([1]; plasma, healthy ICR mice): 580 ± 20 ng/mL
AUC(0-t) ([1]; plasma, healthy ICR mice): 1640 ± 170 ng·h/mL
pharmacokinetic characteristics in words ([1]; LPS-treated mice, plasma, Figure 3b, 3c): fast distribution and subsequent elimination
Cl/F ([1]; plasma, LPS-damaged ICR mice): 28.81 ± 2.51 (mg/kg)/(μg/mL)/h
increase in the Cmax in the damaged animals versus healthy ([1]; plasma, LPS-damaged vs healthy mice): up to three times more
Cl/F ([1]; plasma, healthy ICR mice): 62.45 ± 9.38 (mg/kg)/(μg/mL)/h

Stability Autosampler RE (%) ([2]; brain, nominal 0.3 µg/mL): -3.47%
Stability Freeze-Thaw RE (%) ([2]; brain, nominal 0.3 µg/mL): -0.69%
Stability Long-Term RE (%) ([2]; brain, nominal 0.3 µg/mL): -0.21%
Stability Autosampler RE (%) ([2]; brain, nominal 3.0 µg/mL): 2.31%
Stability Freeze-Thaw RE (%) ([2]; brain, nominal 3.0 µg/mL): -5.14%
Stability Long-Term RE (%) ([2]; brain, nominal 3.0 µg/mL): -0.98%
Stability Autosampler RE (%) ([2]; brain, nominal 30.0 µg/mL): 3.86%
Stability Freeze-Thaw RE (%) ([2]; brain, nominal 30.0 µg/mL): -1.02%
Stability Long-Term RE (%) ([2]; brain, nominal 30.0 µg/mL): -4.72%
Stability Autosampler RE (%) ([2]; kidney, nominal 0.3 µg/mL): 8.17%
Stability Freeze-Thaw RE (%) ([2]; kidney, nominal 0.3 µg/mL): 2.03%
Stability Long-Term RE (%) ([2]; kidney, nominal 0.3 µg/mL): 5.12%
Stability Autosampler RE (%) ([2]; kidney, nominal 3.0 µg/mL): 2.81%
Stability Freeze-Thaw RE (%) ([2]; kidney, nominal 3.0 µg/mL): -0.62%
Stability Long-Term RE (%) ([2]; kidney, nominal 3.0 µg/mL): 3.06%
Stability Autosampler RE (%) ([2]; kidney, nominal 30.0 µg/mL): 1.35%
Stability Freeze-Thaw RE (%) ([2]; kidney, nominal 30.0 µg/mL): 2.25%
Stability Long-Term RE (%) ([2]; kidney, nominal 30.0 µg/mL): 3.32%
Stability Autosampler RE (%) ([2]; plasma, nominal 0.3 µg/mL): 8.34%
Stability Freeze-Thaw RE (%) ([2]; plasma, nominal 0.3 µg/mL): 0.67%
Stability Long-Term RE (%) ([2]; plasma, nominal 0.3 µg/mL): 9.39%
Stability Autosampler RE (%) ([2]; plasma, nominal 3.0 µg/mL): 12.83%
Stability Freeze-Thaw RE (%) ([2]; plasma, nominal 3.0 µg/mL): -7.90%
Stability Long-Term RE (%) ([2]; plasma, nominal 3.0 µg/mL): 3.99%
Stability Autosampler RE (%) ([2]; plasma, nominal 30.0 µg/mL): 14.32%
Stability Freeze-Thaw RE (%) ([2]; plasma, nominal 30.0 µg/mL): -5.47%
Stability Long-Term RE (%) ([2]; plasma, nominal 30.0 µg/mL): 3.55%
Stability Autosampler RE (%) ([2]; spleen, nominal 0.3 µg/mL): 5.46%
Stability Freeze-Thaw RE (%) ([2]; spleen, nominal 0.3 µg/mL): -0.63%
Stability Long-Term RE (%) ([2]; spleen, nominal 0.3 µg/mL): 0.22%
Stability Autosampler RE (%) ([2]; spleen, nominal 3.0 µg/mL): -0.16%
Stability Freeze-Thaw RE (%) ([2]; spleen, nominal 3.0 µg/mL): 4.87%
Stability Long-Term RE (%) ([2]; spleen, nominal 3.0 µg/mL): 7.44%
Stability Autosampler RE (%) ([2]; spleen, nominal 30.0 µg/mL): 1.18%
Stability Freeze-Thaw RE (%) ([2]; spleen, nominal 30.0 µg/mL): 0.49%
Stability Long-Term RE (%) ([2]; spleen, nominal 30.0 µg/mL): 2.92%
SMILES: COc1ccc2ccc(=O)oc2c1 [HR, herniarin]
amount of drug available in the plasma, LPS mice compared to healthy subjects [1]: three-fold higher
Cmax [1, 3]: 1480 ± 190 ng/mL
AUC(0-inf) ([1]; plasma, LPS-damaged ICR mice): 3210 ± 380 ng·h/mL
MRT ([1]; plasma, LPS-damaged ICR mice): 2.77 ± 0.25 h
Tmax ([1]; plasma, LPS-damaged ICR mice): 0.25 h
half-life ([1]; plasma, LPS-damaged ICR mice): 1.49 ± 0.35 h
AUC(0-t) ([1]; plasma, LPS-damaged ICR mice): 2950 ± 280 ng·h/mL
AUC(0-inf) ([1]; plasma, healthy ICR mice): 1030 ± 140 ng·h/mL
MRT ([1]; plasma, healthy ICR mice): 2.77 ± 0.35 h
Tmax ([1]; plasma, healthy ICR mice): 0.95 ± 0.35 h
half-life ([1]; plasma, healthy ICR mice): 1.66 ± 0.46 h
Cmax ([1]; plasma, healthy ICR mice): 620 ± 340 ng/mL
AUC(0-t) ([1]; plasma, healthy ICR mice): 920 ± 120 ng·h/mL
Cl/F ([1]; plasma, LPS-damaged ICR mice): 32.50 ± 2.91 (mg/kg)/(μg/mL)/h
Cl/F ([1]; plasma, healthy ICR mice): 103.7 ± 13.0 (mg/kg)/(μg/mL)/h
